Data taken from ChEMBL document CHEMBL1140679, “The identification of potent, selective, and bioavailable cathepsin S inhibitors” (Bioorg Med Chem Lett, 2007).

Experiments:
[1] = target: Cathepsin S (Homo sapiens, UniProt P25774); assay: Inhibition of human cathepsin S
[2] = target: T1, Cathepsin K (Homo sapiens, UniProt P43235); assay: Inhibition of human cathepsin K
T1 sequence (P43235 whole entry): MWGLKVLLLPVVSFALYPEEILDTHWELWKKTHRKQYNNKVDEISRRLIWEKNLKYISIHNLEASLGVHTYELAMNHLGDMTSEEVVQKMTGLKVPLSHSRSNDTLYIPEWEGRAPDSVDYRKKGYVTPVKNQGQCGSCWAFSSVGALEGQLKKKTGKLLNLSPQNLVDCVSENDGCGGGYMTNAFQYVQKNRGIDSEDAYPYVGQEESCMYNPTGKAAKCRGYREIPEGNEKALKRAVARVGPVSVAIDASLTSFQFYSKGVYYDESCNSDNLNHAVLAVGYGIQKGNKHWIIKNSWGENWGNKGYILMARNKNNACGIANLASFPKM

[3] = target: Cathepsin B (Homo sapiens, UniProt P07858); assay: Inhibition of human cathepsin B
[4] = target: Cathepsin S (Mus musculus, UniProt O70370); assay: Inhibition of mouse recombinant cathepsin S
[5] = target: T2, Cathepsin K (Mus musculus, UniProt P55097); assay: Inhibition of mouse recombinant cathepsin K
T2 sequence (P55097 whole entry): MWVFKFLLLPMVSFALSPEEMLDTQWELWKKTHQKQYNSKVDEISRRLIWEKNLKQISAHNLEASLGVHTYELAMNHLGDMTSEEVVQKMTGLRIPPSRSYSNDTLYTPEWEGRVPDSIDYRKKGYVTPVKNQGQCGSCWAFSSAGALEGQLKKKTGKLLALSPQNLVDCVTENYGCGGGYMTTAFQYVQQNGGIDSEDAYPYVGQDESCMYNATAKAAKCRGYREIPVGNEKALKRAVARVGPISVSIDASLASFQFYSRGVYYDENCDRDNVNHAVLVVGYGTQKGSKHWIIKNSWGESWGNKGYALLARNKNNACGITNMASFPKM

[6] = target: Cathepsin B (Mus musculus, UniProt P10605); assay: Inhibition of mouse recombinant cathepsin B
[7] = target: Cathepsin S (Rattus norvegicus, UniProt Q02765); assay: Inhibition of rat spleen cathepsin S; assay type: tissue-based
[8] = target: Cathepsin B (Rattus norvegicus, UniProt P00787); assay: Inhibition of rat liver lysosomal cathepsin B
[9] = target: T3, Procathepsin L (Rattus norvegicus, UniProt P07154); assay: Inhibition of rat liver lysosomal cathepsin L
T3 sequence (P07154 whole entry): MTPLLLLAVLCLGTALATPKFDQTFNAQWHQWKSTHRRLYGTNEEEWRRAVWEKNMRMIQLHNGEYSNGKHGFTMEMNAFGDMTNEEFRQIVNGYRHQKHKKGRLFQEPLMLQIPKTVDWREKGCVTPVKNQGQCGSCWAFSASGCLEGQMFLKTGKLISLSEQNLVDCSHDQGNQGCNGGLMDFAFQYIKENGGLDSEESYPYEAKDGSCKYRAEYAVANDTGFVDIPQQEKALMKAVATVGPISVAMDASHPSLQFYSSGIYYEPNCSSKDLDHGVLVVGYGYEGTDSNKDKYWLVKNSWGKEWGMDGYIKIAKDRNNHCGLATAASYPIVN

[10] = Inhibition of antigen presentation in mouse B cells; assay type: functional, cell-based
[11] = target: Procathepsin L (Homo sapiens, UniProt P07711); assay: Inhibition of human cathepsin L
[12] = target: T4, Procathepsin L (Mus musculus, UniProt P06797); assay: Inhibition of mouse recombinant cathepsin L
T4 sequence (P06797 whole entry): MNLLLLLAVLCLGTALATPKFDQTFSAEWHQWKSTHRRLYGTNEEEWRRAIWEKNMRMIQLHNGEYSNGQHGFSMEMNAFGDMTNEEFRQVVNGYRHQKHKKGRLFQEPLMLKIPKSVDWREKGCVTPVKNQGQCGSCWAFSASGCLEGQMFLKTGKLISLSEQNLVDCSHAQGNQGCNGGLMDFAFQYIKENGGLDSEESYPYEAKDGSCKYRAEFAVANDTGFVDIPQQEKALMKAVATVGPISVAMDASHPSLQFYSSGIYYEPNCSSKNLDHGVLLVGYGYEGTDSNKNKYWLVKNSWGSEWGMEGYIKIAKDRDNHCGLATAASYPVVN

[13] = Bioavailability in Sprague-Dawley rat; assay type: ADME, organism-based; details: in vivo
[14] = Cmax in Sprague-Dawley rat; assay type: ADME, organism-based; details: in vivo
[15] = Half life in Sprague-Dawley rat; assay type: ADME, organism-based; details: in vivo

Sequence of Cathepsin S (Rattus norvegicus, UniProt Q02765) (Q02765 whole entry): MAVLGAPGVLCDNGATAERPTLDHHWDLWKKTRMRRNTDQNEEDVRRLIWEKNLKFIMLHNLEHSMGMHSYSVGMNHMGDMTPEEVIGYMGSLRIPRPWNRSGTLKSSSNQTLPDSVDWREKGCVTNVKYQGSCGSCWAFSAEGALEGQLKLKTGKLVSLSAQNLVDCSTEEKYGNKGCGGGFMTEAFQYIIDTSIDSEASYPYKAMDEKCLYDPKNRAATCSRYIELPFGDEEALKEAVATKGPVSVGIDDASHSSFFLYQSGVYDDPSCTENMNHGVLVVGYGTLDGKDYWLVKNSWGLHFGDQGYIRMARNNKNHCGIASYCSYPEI
Sequence of Cathepsin B (Mus musculus, UniProt P10605) (P10605 whole entry): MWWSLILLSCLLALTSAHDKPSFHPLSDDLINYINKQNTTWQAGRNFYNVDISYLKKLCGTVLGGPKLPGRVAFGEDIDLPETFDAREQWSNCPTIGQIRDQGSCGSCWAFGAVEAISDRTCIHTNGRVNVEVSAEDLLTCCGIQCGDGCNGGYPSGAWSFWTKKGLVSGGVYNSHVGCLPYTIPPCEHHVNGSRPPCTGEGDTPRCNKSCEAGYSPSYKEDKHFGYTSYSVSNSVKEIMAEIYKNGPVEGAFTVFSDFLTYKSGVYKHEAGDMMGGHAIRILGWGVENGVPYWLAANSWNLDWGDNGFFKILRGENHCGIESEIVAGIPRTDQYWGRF
Sequence of Cathepsin S (Mus musculus, UniProt O70370) (O70370 whole entry): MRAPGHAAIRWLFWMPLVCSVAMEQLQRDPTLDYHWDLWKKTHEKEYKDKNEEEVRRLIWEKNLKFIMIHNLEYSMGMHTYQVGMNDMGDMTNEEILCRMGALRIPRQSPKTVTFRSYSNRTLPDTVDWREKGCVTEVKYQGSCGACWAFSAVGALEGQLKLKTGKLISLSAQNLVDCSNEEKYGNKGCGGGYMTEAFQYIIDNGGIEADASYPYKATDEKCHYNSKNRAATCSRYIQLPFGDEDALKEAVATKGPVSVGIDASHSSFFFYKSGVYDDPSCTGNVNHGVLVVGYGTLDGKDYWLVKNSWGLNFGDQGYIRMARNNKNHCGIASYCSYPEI
Sequence of Cathepsin B (Rattus norvegicus, UniProt P00787) (P00787 whole entry): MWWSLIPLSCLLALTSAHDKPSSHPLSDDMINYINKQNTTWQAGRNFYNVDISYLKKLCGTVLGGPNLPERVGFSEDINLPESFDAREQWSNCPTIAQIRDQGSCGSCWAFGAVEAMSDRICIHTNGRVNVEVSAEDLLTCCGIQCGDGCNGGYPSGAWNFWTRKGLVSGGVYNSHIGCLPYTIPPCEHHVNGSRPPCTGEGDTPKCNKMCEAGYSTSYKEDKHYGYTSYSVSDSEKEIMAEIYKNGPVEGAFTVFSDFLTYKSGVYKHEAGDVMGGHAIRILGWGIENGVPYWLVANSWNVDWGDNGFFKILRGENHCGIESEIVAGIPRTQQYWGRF
Sequence of Procathepsin L (Homo sapiens, UniProt P07711) (P07711 whole entry): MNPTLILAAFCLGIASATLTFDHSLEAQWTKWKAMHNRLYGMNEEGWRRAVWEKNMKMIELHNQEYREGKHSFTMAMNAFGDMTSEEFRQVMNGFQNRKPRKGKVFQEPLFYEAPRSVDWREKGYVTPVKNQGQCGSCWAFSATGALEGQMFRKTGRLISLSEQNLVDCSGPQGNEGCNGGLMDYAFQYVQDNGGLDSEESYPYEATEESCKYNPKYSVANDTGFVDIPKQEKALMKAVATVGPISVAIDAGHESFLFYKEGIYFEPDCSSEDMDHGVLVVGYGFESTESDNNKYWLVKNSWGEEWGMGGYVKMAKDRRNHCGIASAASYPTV
Sequence of Cathepsin S (Homo sapiens, UniProt P25774) (P25774 whole entry): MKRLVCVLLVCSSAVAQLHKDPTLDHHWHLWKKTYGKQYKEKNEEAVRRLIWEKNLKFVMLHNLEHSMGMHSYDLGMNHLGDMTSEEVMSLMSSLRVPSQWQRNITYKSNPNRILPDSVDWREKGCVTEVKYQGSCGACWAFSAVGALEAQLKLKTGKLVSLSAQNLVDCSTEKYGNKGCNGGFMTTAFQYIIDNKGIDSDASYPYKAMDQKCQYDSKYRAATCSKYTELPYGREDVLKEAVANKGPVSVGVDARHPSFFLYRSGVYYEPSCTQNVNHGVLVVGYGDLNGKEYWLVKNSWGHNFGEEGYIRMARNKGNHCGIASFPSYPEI

Compound | IC50 [1] | IC50 [2] | IC50 [3] | IC50 [4] | IC50 [5] | IC50 [6] | IC50 [7] | IC50 [8] | IC50 [9] | IC50 [10] | IC50 [11] | IC50 [12] | bioavailability [13] | Cmax [14] | half-life [15]
CC(C)C[C@@H](NC(=O)N1CCOCC1)C(=O)N[C@@H](/C=C/S(=O)(=O)c1ccccc1)CCc1ccccc1 | 1.2 nM | 6.2 nM | 4500 nM | 0.5 nM | 388 nM | 1280 nM | 1.7 nM | 735 nM | 4.1 nM | 1.2 nM |  |  |  |  | 
CS(=O)(=O)C[C@H](N[C@@H](c1ccc(-c2ccc(F)cc2)cc1)C(F)(F)F)C(=O)NC1(C#N)CC1 | 10 nM | 5.3 nM | 170 nM |  |  |  |  |  |  |  | > 10000 nM |  |  |  | 
CC(C)C[C@H](N[C@@H](c1ccc(-c2ccc(S(C)(=O)=O)cc2)cc1)C(F)(F)F)C(=O)NC1(C#N)CC1 | 265 nM | 0.3 nM | 7740 nM |  |  |  |  |  |  |  | 456 nM |  |  |  | 
CS(=O)(=O)C[C@H](N[C@@H](c1ccccc1)C(F)(F)F)C(=O)NC1(C#N)CC1 | 2.5 nM | 141 nM | 1980 nM |  |  |  |  |  |  |  | 1040 nM |  |  |  | 
CSC[C@H](N[C@@H](c1ccc(Br)cc1)C(F)(F)F)C(=O)NC1(C#N)CC1 | 80 nM | 5 nM | 417 nM |  |  |  |  |  |  |  | 456 nM |  |  |  | 
N#CC1(NC(=O)[C@H](CS(=O)(=O)CC2CC2)N[C@@H](c2ccccc2)C(F)(F)F)CC1 | 0.6 nM | 555 nM | 287 nM |  |  |  |  |  |  |  | 68 nM |  |  |  | 
CS(=O)(=O)C[C@H](N[C@@H](c1cccc(F)c1)C(F)(F)F)C(=O)NC1(C#N)CC1 | 6.4 nM | 314 nM | 3850 nM |  |  |  |  |  |  |  | 911 nM |  |  |  | 
N#CC1(NC(=O)[C@H](CS(=O)(=O)c2ccc(Br)cc2)N[C@@H](c2ccccc2)C(F)(F)F)CC1 | 0.3 nM | 290 nM | 3450 nM | 0.2 nM | 1320 nM | 1750 nM | 66 nM | 1810 nM | 72 nM |  | 15 nM | 39 nM |  |  | 
N#CC1(NC(=O)[C@H](CS(=O)(=O)c2nc3ccccc3s2)N[C@@H](c2ccccc2)C(F)(F)F)CC1 | 1.3 nM | 825 nM | 2970 nM |  |  |  |  |  |  |  | 114 nM |  |  |  | 
N#CC1(NC(=O)[C@H](CS(=O)(=O)Cc2ccccc2-c2ccccc2)N[C@@H](c2ccc(F)cc2)C(F)(F)F)CC1 | 1.8 nM | > 10000 nM | 4040 nM |  |  |  |  |  |  |  | > 10000 nM |  |  |  | 
N#CC1(NC(=O)[C@H](CS(=O)(=O)c2ccc(F)cc2)N[C@@H](c2ccc(F)cc2)C(F)(F)F)CC1 | 0.4 nM | 305 nM | 7280 nM |  |  |  |  |  |  |  | 22 nM |  |  |  | 
N#CC1(NC(=O)[C@H](CS(=O)(=O)CC2CC2)N[C@@H](c2ccc(F)cc2)C(F)(F)F)CC1 | 0.5 nM | 2000 nM | 1000 nM | 0.9 nM | > 10000 nM | 253 nM | 759 nM | 272 nM | 738 nM |  | 188 nM | 332 nM | 40% | 2800 nM | 3.8 h
N#CC1(NC(=O)[C@H](CS(=O)(=O)c2cccc(Br)c2)N[C@@H](c2ccccc2)C(F)(F)F)CC1 | 0.2 nM | 269 nM | 6630 nM | < 0.2 nM | 2550 nM | 4010 nM | 44 nM | 4700 nM | 132 nM |  | 23 nM | 90 nM |  |  | 
N#CC1(NC(=O)[C@H](CS(=O)(=O)Cc2cccc(F)c2F)N[C@@H](c2ccccc2)C(F)(F)F)CC1 | 0.3 nM | > 10000 nM | 1840 nM |  |  |  |  |  |  |  | 105 nM |  |  |  | 
CC(C)CS(=O)(=O)C[C@H](N[C@@H](c1ccc(F)cc1)C(F)(F)F)C(=O)NC1(C#N)CC1 | 0.4 nM | 3060 nM | 337 nM |  |  |  |  |  |  |  | 132 nM |  | 5% | 140 nM | 1.6 h
N#CC1(NC(=O)[C@H](CS(=O)(=O)Cc2ccc(F)cc2)N[C@@H](c2ccccc2)C(F)(F)F)CC1 | 0.5 nM | > 10000 nM | 2780 nM |  |  |  |  |  |  |  | 86 nM |  |  |  | 
N#CC1(NC(=O)[C@H](CS(=O)(=O)Cc2cccc(F)c2F)N[C@@H](c2ccc(F)cc2)C(F)(F)F)CC1 | 0.3 nM | > 10000 nM | 1320 nM | 0.8 nM | > 10000 nM | 384 nM | 21 nM | 384 nM | 399 nM |  | 121 nM | 662 nM | 3% | 46 nM | 1.2 h
N#CC1(NC(=O)[C@H](CS(=O)(=O)c2nccs2)N[C@@H](c2ccccc2)C(F)(F)F)CC1 | 5 nM | 376 nM | 3610 nM |  |  |  |  |  |  |  | 181 nM |  |  |  | 
N#CC1(NC(=O)[C@H](CS(=O)(=O)Cc2c(F)cccc2F)N[C@@H](c2ccc(F)cc2)C(F)(F)F)CC1 | 0.7 nM | > 10000 nM | > 10000 nM |  |  |  |  |  |  |  | 249 nM |  |  |  | 
C[S+]([O-])C[C@H](N[C@@H](c1ccc(Br)cc1)C(F)(F)F)C(=O)NC1(C#N)CC1 (stereo partly specified) | 2170 nM | 639 nM | 8030 nM |  |  |  |  |  |  |  | > 10000 nM |  |  |  | 
CC(C)C[C@H](N[C@@H](c1ccc(-c2ccc(S(C)(=O)=O)cc2)cc1)C(F)(F)F)C(=O)NCC#N |  | 0.2 nM |  | 254 nM | 43 nM | 540 nM | 2440 nM | 925 nM | 90 nM | 4810 nM |  | 254 nM |  |  | 
CC(C)(c1ccc(F)cc1)S(=O)(=O)C[C@H](N[C@@H](c1ccc(F)cc1)C(F)(F)F)C(=O)NC1(C#N)CC1 | 627 nM | > 10000 nM | > 10000 nM |  |  |  |  |  |  |  | > 10000 nM |  |  |  | 
